Measurements from patent US20090280106A1, “Pituitary adenylate cyclase acivating peptide (pacap) receptor (vpac2) agonists and their pharmacological methods of use” (Bayer Pharmaceuticals Corporation, priority 2005, published 2009).

Columns and labels:
DPPIV [1] = molecular target: T1, DPPIV (Homo sapiens, UniProt P27487); details: cited from earlier work
DPPIV [2] = molecular target: T1, DPPIV; details: longer time points
Method: The formulations described in Example 4 are placed in constant stability chamber. Peptides are also analyzed for stability to degradation in solutions of DPPIV and in plasma. Samples are removed periodically for analysis by capillary electrophoresis, mass spectrometry, Edman degradation, ELISA, and assays of peptide activity, which are sensitive methods to detect degradation of peptide. The area of various peaks is summed and the area for peak of the parent peptide is divided by the total peak area. The quotient is the % purity. Since there are impurities present in the fresh peptide, the purity change is normalized by dividing the purity at different time point by the initial purity. For stability to DPPIV and plasma, peptides at 20 pmol/μl were incubated at 37° C. in the presence of 300 pM DPPIV in 100 mM HEPES, pH 7.4. At various timepoints, the reaction (2 μl aliquot) is terminated by addition of 1 μM DPPIV inhibitor and freezing. For MALDI mass spectrometric analysis, T=0 hr, 1 hr, 5 hr, and 24 hr timepoints are evaluated. The results are plotted as percent intact peptide or peptide derivative as compared to degradation products.

T1 sequence (P27487 whole entry, species assumed): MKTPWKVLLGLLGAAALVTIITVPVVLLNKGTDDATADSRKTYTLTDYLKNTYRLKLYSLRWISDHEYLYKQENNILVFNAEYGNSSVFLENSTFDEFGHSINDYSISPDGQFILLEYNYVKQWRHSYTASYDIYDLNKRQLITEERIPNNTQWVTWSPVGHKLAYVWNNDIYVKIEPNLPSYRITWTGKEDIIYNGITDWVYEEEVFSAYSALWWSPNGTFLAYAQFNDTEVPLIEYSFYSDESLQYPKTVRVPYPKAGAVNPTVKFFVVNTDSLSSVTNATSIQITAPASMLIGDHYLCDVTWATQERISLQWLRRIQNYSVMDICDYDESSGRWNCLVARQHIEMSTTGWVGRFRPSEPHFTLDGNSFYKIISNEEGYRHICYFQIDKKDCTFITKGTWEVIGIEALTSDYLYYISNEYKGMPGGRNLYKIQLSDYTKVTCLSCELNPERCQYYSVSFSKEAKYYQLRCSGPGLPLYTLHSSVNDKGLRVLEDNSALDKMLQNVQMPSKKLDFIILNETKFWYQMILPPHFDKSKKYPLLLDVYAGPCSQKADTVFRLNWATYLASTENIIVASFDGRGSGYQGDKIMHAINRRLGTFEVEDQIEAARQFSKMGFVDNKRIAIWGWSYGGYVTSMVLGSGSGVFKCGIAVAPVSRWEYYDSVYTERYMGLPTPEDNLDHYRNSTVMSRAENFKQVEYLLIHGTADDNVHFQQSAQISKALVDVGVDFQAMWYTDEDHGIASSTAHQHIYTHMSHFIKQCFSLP

SMILES | cleavage by DPPIV as reported (Zhu, et al., J. Biol. Chem. 278: 22418-22423, 2003) (DPPIV [1]) | cleavage by DPPIV (DPPIV [2])
CC[C@H](C)[C@H](NC(=O)CNC(=O)[C@H](CC(=O)O)NC(=O)[C@H](CO)NC(=O)[C@@H](N)Cc1cnc[nH]1)C(=O)N[C@@H](Cc1ccccc1)C(=O)N[C@H](C(=O)N[C@@H](CC(=O)O)C(=O)N[C@@H](CO)C(=O)N[C@@H](Cc1ccc(O)cc1)C(=O)N[C@@H](CO)C(=O)N[C@@H](CCCNC(=N)N)C(=O)N[C@@H](Cc1ccc(O)cc1)C(=O)N[C@@H](CCCNC(=N)N)C(=O)N[C@@H](CCCCN)C(=O)N[C@@H](CCC(N)=O)C(=O)N[C@@H](CCSC)C(=O)N[C@@H](C)C(=O)N[C@H](C(=O)N[C@@H](CCCCN)C(=O)N[C@@H](CCCCN)C(=O)N[C@@H](Cc1ccc(O)cc1)C(=O)N[C@@H](CC(C)C)C(=O)N[C@@H](C)C(=O)N[C@@H](C)C(=O)N[C@H](C(=O)N[C@@H](CC(C)C)C(N)=O)C(C)C)C(C)C)[C@@H](C)O [PACAP27] | resistant to cleavage | cleaved at longer time points
CC[C@H](C)[C@H](NC(=O)[C@H](CO)NC(=O)[C@H](CC(N)=O)NC(=O)[C@H](CC(C)C)NC(=O)[C@H](Cc1ccc(O)cc1)NC(=O)[C@H](CCCCN)NC(=O)[C@H](CCCCN)NC(=O)[C@@H](NC(=O)[C@H](C)NC(=O)[C@H](CCSC)NC(=O)[C@H](CCC(N)=O)NC(=O)[C@H](CCCCN)NC(=O)[C@H](CCCN=C(N)N)NC(=O)[C@H](CC(C)C)NC(=O)[C@H](CCCN=C(N)N)NC(=O)[C@@H](NC(=O)[C@H](Cc1ccc(O)cc1)NC(=O)[C@H](CC(N)=O)NC(=O)[C@H](CC(=O)O)NC(=O)[C@@H](NC(=O)[C@H](Cc1ccccc1)NC(=O)[C@@H](NC(=O)[C@H](C)NC(=O)[C@H](CC(=O)O)NC(=O)[C@H](CO)NC(=O)[C@@H](N)Cc1c[nH]cn1)C(C)C)[C@@H](C)O)[C@@H](C)O)C(C)C)C(=O)N[C@@H](CC(C)C)C(=O)N[C@@H](CC(N)=O)C(N)=O [VIP] | resistant to cleavage | cleaved at longer time points
